Laboratory results from patent publication US8278452B2, “Heterocyclic compounds and compositions as c-kit and PDGFR kinase inhibitors” (IRM LLC, priority 2008, dated 2012).

System: Mo7e cells which endogenously express c-kit
Assay: Mo7e assay: inhibition of SCF dependent proliferation (MTT)
Type: cell-based
Settings: Table 1; SCF stimulated Mo7e cells, 48 hours, MTT
Description: The compounds described herein are tested for inhibition of SCF dependent proliferation using Mo7e cells which endogenously express c-kit in a 96 well format. Two-fold serially diluted test compounds (Cmax=10 μM) are evaluated for their antiproliferative activity of Mo7e cells stimulated with human recombinant SCF. After 48 hours of incubation at 37° C., cell viability is measured by using a MTT colorimetric assay from Promega. IC50 values for compounds of the invention are quoted in table 1, supra.

SMILES | IC50
Cc1cc2c(cn1)cc(-c1cc(Nc3noc(C4(C)COC4)n3)ccc1C)c(=O)n2C [Compound A65, 1,7-dimethyl-3-(2-methyl-5-{[5-(3-methyloxetan-3-yl)-1,2,4-oxadiazol-3-yl]amino}phenyl)-1,2-dihydro-1,6-naphthyridin-2-one] | 413 nM
CC(=NO)c1cc(Nc2ccc(C)c(-c3cc4cnc(C)cc4n(C)c3=O)c2)no1 [Compound D13] | 476 nM
Cc1cc2c(cn1)cc(-c1cc(Nc3noc(-c4cnccn4)n3)ccc1C)c(=O)n2C [Compound A70, 1,7-dimethyl-3-(2-methyl-5-{[5-(pyrazin-2-yl)-1,2,4-oxadiazol-3-yl]amino}phenyl)-1,2-dihydro-1,6-naphthyridin-2-one] | 211 nM
CCOCc1nc(Nc2ccc(C)c(-c3cc4cnc(C)cc4n(C)c3=O)c2)no1 [Compound A74, 3-(5-{[5-(ethoxymethyl)-1,2,4-oxadiazol-3-yl]amino}-2-methylphenyl)-1,7-dimethyl-1,2-dihydro-1,6-naphthyridin-2-one] | 296 nM
COc1ccc(-c2nc(Nc3ccc(C)c(-c4cc5cnc(C)cc5n(C)c4=O)c3)no2)cn1 [Compound A87, 3-(5-{[5-(6-methoxypyridin-3-yl)-1,2,4-oxadiazol-3-yl]amino}-2-methylphenyl)-1,7-dimethyl-1,2-dihydro-1,6-naphthyridin-2-one] | 95 nM
Cc1cc2c(cn1)cc(-c1cc(Nc3noc(C4CCO4)n3)ccc1C)c(=O)n2C (stereo not shown) [Compound A66, 1,7-dimethyl-3-(2-methyl-5-{[5-(oxetan-2-yl)-1,2,4-oxadiazol-3-yl]amino}phenyl)-1,2-dihydro-1,6-naphthyridin-2-one] | 143 nM
Cc1cc2c(cn1)cc(-c1cc(Nc3noc(C(C)C)n3)ccc1C)c(=O)n2C [Compound A6, 3-(5-(5-isopropyl-1,2,4-oxadiazol-3-ylamino)-2-methylphenyl)-1,7-dimethyl-1,6-naphthyridin-2(1H)-one] | 34 nM
Cc1cc2c(cn1)cc(-c1cc(Nc3noc(-c4ccc(Cl)cc4Cl)n3)ccc1C)c(=O)n2C [Compound A82, 3-(5-{[5-(2,4-dichlorophenyl)-1,2,4-oxadiazol-3-yl]amino}-2-methylphenyl)-1,7-dimethyl-1,2-dihydro-1,6-naphthyridin-2-one] | 262 nM
Cc1cc2c(cn1)cc(-c1cc(Nc3noc(C(C)(F)F)n3)ccc1C)c(=O)n2C [Compound A54, 3-(5-(5-(1,1-difluoroethyl)-1,2,4-oxadiazol-3-ylamino)-2-methylphenyl)-1,7-dimethyl-1,6-naphthyridin-2(1H)-one] | 148 nM
CCc1cc2c(cn1)cc(-c1cc(Nc3noc(-c4ccccn4)n3)ccc1C)c(=O)n2C [Compound A105, 7-ethyl-1-methyl-3-(2-methyl-5-(5-(pyridin-2-yl)-1,2,4-oxadiazol-3-ylamino)phenyl)-1,6-naphthyridin-2(1H)-one] | 285 nM
Cc1cc2c(cn1)cc(-c1cc(Nc3cc(C4CC4)on3)ccc1C)c(=O)n2C [Compound D4, 3-(5-(5-cyclopropylisoxazol-3-ylamino)-2-methylphenyl)-1,7-dimethyl-1,6-naphthyridin-2(1H)-one] | 56 nM
Cc1cc2c(cn1)cc(-c1cc(Nc3noc(-c4ccccc4)c3C)ccc1C)c(=O)n2C [Compound D10] | 339 nM
Cc1cc2c(cn1)cc(-c1cc(Nc3noc(-c4ccc(C(F)(F)F)nc4)n3)ccc1C)c(=O)n2C [Compound A4, 1,7-dimethyl-3-[2-methyl-5-({5-[6-(trifluoromethyl)pyridin-3-yl]-1,2,4-oxadiazol-3-yl}amino)phenyl]-1,2-dihydro-1,6-naphthyridin-2-one] | 472 nM
CCC(CC)c1nc(Nc2ccc(C)c(-c3cc4cnc(C)cc4n(C)c3=O)c2)no1 [Compound A31, 1,7-dimethyl-3-(2-methyl-5-{[5-(pentan-3-yl)-1,2,4-oxadiazol-3-yl]amino}phenyl)-1,2-dihydro-1,6-naphthyridin-2-one] | 105 nM
Cc1cnc(-c2nc(Nc3ccc(C)c(-c4cc5cnc(C)cc5n(C)c4=O)c3)no2)cn1 [Compound A71, 1,7-dimethyl-3-(2-methyl-5-{[5-(5-methylpyrazin-2-yl)-1,2,4-oxadiazol-3-yl]amino}phenyl)-1,2-dihydro-1,6-naphthyridin-2-one] | 424 nM
Cc1cc2c(cn1)cc(-c1cc(Nc3noc(C4CCOC4)n3)ccc1C)c(=O)n2C (stereo not shown) [Compound A78, 1,7-dimethyl-3-(2-methyl-5-{[5-(oxolan-3-yl)-1,2,4-oxadiazol-3-yl]amino}phenyl)-1,2-dihydro-1,6-naphthyridin-2-one] | 120 nM
COc1ccc(-c2nc(Nc3ccc(C)c(-c4cc5cnc(C)cc5n(C)c4=O)c3)no2)nc1 [Compound A103, 3-(5-{[5-(5-methoxypyridin-2-yl)-1,2,4-oxadiazol-3-yl]amino}-2-methylphenyl)-1,7-dimethyl-1,2-dihydro-1,6-naphthyridin-2-one] | 82 nM

SMILES | IC50
Cc1cc2c(cn1)cc(-c1cc(Nc3noc(-c4nccn4C)n3)ccc1C)c(=O)n2C [Compound A22, 1,7-dimethyl-3-(2-methyl-5-{[5-(1-methyl-1H-imidazol-2-yl)-1,2,4-oxadiazol-3-yl]amino}phenyl)-1,2-dihydro-1,6-naphthyridin-2-one] | 360 nM
Cc1cc2c(cn1)cc(-c1cc(Nc3noc(-c4ccc(Cl)cc4)n3)ccc1C)c(=O)n2C [Compound A12, 3-(5-{[5-(4-chlorophenyl)-1,2,4-oxadiazol-3-yl]amino}-2-methylphenyl)-1,7-dimethyl-1,2-dihydro-1,6-naphthyridin-2-one] | 13 nM
Cc1cc2c(cn1)cc(-c1cc(Nc3cc(-c4ccc(F)cc4)on3)ccc1C)c(=O)n2C [Compound D11] | 82 nM
Cc1cc2c(cn1)cc(-c1cc(Nc3noc([C@@H]4CCCCO4)n3)ccc1C)c(=O)n2C [Compound A100, 1,7-dimethyl-3-[2-methyl-5-({5-[(2S)-oxan-2-yl]-1,2,4-oxadiazol-3-yl}amino)phenyl]-1,2-dihydro-1,6-naphthyridin-2-one] | 70 nM
Cc1cc2c(cn1)cc(-c1cc(Nc3noc(-c4cccn4C)n3)ccc1C)c(=O)n2C [Compound A21, 1,7-dimethyl-3-(2-methyl-5-{[5-(1-methyl-1H-pyrrol-2-yl)-1,2,4-oxadiazol-3-yl]amino}phenyl)-1,2-dihydro-1,6-naphthyridin-2-one] | 129 nM
Cc1cc2c(cn1)cc(-c1cc(Nc3noc(CC(C)(C)O)n3)ccc1C)c(=O)n2C [Compound A56, 3-(5-(5-(2-hydroxy-2-methylpropyl)-1,2,4-oxadiazol-3-ylamino)-2-methylphenyl)-1,7-dimethyl-1,6-naphthyridin-2(1H)-one] | 230 nM
Cc1cccc(-c2nc(Nc3ccc(C)c(-c4cc5cnc(C)cc5n(C)c4=O)c3)no2)c1 [Compound A17, 1,7-dimethyl-3-(2-methyl-5-{[5-(3-methylphenyl)-1,2,4-oxadiazol-3-yl]amino}phenyl)-1,2-dihydro-1,6-naphthyridin-2-one] | 241 nM
Cc1cc2c(cn1)cc(-c1cc(Nc3noc(-c4cc5cc(Cl)ccc5[nH]4)n3)ccc1C)c(=O)n2C [Compound A46, 3-(5-{[5-(5-chloro-1H-indol-2-yl)-1,2,4-oxadiazol-3-yl]amino}-2-methylphenyl)-1,7-dimethyl-1,2-dihydro-1,6-naphthyridin-2-one] | 338 nM
Cc1cc2c(cn1)cc(-c1cc(Nc3noc(-c4cccc(O)n4)n3)ccc1C)c(=O)n2C [Compound A42, 3-(5-{[5-(6-hydroxypyridin-2-yl)-1,2,4-oxadiazol-3-yl]amino}-2-methylphenyl)-1,7-dimethyl-1,2-dihydro-1,6-naphthyridin-2-one] | 265 nM
Cc1cc2c(cn1)cc(-c1cc(Nc3noc(C(C)CO)n3)ccc1C)c(=O)n2C (stereo not shown) [Compound A67, 3-(5-(5-(1-hydroxypropan-2-yl)-1,2,4-oxadiazol-3-ylamino)-2-methylphenyl)-1,7-dimethyl-1,6-naphthyridin-2(1H)-one] | 299 nM
Cc1cc2c(cn1)cc(-c1cc(Nc3noc(-c4ccc(F)cc4Cl)n3)ccc1C)c(=O)n2C [Compound A81, 3-(5-{[5-(2-chloro-4-fluorophenyl)-1,2,4-oxadiazol-3-yl]amino}-2-methylphenyl)-1,7-dimethyl-1,2-dihydro-1,6-naphthyridin-2-one] | 237 nM
CCc1nc(Nc2ccc(C)c(-c3cc4cnc(C)cc4n(C)c3=O)c2)no1 [Compound A5, 3-(5-(5-ethyl-1,2,4-oxadiazol-3-ylamino)-2-methylphenyl)-1,7-dimethyl-1,6-naphthyridin-2(1H)-one] | 49 nM
Cc1cc2c(cn1)cc(-c1cc(Nc3noc(C(O)C(C)C)n3)ccc1C)c(=O)n2C (stereo in doubt) [Compound A92, (R)-3-(5-(5-(1-hydroxy-2-methylpropyl)-1,2,4-oxadiazol-3-ylamino)-2-methylphenyl)-1,7-dimethyl-1,6-naphthyridin-2(1H)-one] | 104 nM
Cc1cc2c(cn1)cc(-c1cc(Nc3nnc(CC(C)C)o3)ccc1C)c(=O)n2C [Compound B5, 3-(5-(5-isobutyl-1,3,4-oxadiazol-2-ylamino)-2-methylphenyl)-1,7-dimethyl-1,6-naphthyridin-2(1H)-one] | 108 nM
Cc1cc2c(cn1)cc(-c1cc(Nc3noc(-c4ccccc4Cl)n3)ccc1C)c(=O)n2C [Compound A8, 3-(5-{[5-(2-chlorophenyl)-1,2,4-oxadiazol-3-yl]amino}-2-methylphenyl)-1,7-dimethyl-1,2-dihydro-1,6-naphthyridin-2-one] | 158 nM
Cc1cc2c(cn1)cc(-c1cc(Nc3noc(C4(C(F)(F)F)CC4)n3)ccc1C)c(=O)n2C [Compound A58, 1,7-dimethyl-3-(2-methyl-5-(5-(1-(trifluoromethyl)cyclopropyl)-1,2,4-oxadiazol-3-ylamino)phenyl)-1,6-naphthyridin-2(1H)-one] | 399 nM
CCc1cc2c(cn1)cc(-c1cc(Nc3noc(C(C)C)n3)ccc1C)c(=O)n2C [Compound A104, 7-ethyl-3-(5-(5-isopropyl-1,2,4-oxadiazol-3-ylamino)-2-methylphenyl)-1-methyl-1,6-naphthyridin-2(1H)-one] | 88 nM
